Laboratory results from ChEMBL document CHEMBL4699589, “4-Hydroxy Pyridones from Heterologous Expression and Cultivation of the Native Host” (2020).

Tests used:
Assay type in all cases: functional
Escherichia coli = assay: Antibacterial activity against Escherichia coli assessed as reduction in microbial growth after 1 day by two-fold dilution method; conditions: 24 h
Staphylococcus aureus = assay: Antibacterial activity against Staphylococcus aureus 209P assessed as reduction in microbial growth after 1 day by two-fold dilution method; conditions: 24 h
Candida albicans = assay: Antifungal activity against Candida albicans ATCC96901 assessed as reduction in microbial growth after 2 to 3 days by two-fold dilution method; conditions: time day 2-3
Cryptococcus neoformans = assay: Antifungal activity against Cryptococcus neoformans assessed as reduction in microbial growth after 2 to 3 days by two-fold dilution method; conditions: time day 2-3

Row | SMILES | MIC (Escherichia coli) [µM] | MIC (Staphylococcus aureus) [µM] | MIC (Candida albicans) [µM] | MIC (Cryptococcus neoformans) [µM]
1 | C/C=C/C[C@H](C)C[C@@]1(C)Oc2c(-c3ccc(O)cc3)c[nH]c(=O)c2[C@H]1O | > 100 | > 100 | > 100 | –
2 | C/C=C/C[C@H](C)C[C@H](C)C(=O)c1c(O)c(-c2ccc(O)cc2)c[nH]c1=O | > 100 | > 100 | > 100 | 6.25
3 | C/C=C/C[C@H](C)C[C@H](C)C(=O)C1=C(O)[C@H](Cc2ccc(O)cc2)NC1=O | > 100 | > 100 | > 100 | > 100
4 | C/C=C/C[C@H](C)C[C@@]1(C)Oc2c(-c3ccc(O)cc3)c[nH]c(=O)c2[C@@H]1O | > 100 | > 100 | > 100 | –
5 | C/C=C/C[C@H](C)C[C@H](C)C(=O)C1=C(O)[C@H]([C@@H](O)c2ccc(O)cc2)NC1=O | > 100 | > 100 | > 100 | 25
6 | C/C=C/C[C@H](C)C[C@H](C)C(=O)C1=C(O)/C(=C/c2ccc(O)cc2)NC1=O | > 100 | > 100 | > 100 | > 100
7 | C[C@H]1C[C@@H]2[C@H](c3c(c(-c4ccc(O)cc4)c[nH]c3=O)O[C@@H]2C)[C@@H](C)C1 | > 100 | > 100 | > 100 | 6.25
8 | C/C=C/C[C@H](C)C[C@]1(C)Oc2c(-c3ccc(O)cc3)c[nH]c(=O)c2[C@H]1O | > 100 | > 100 | > 100 | –
9 | C[C@H]1[C@H](O)[C@@H](C)C[C@@H]2[C@@H]1c1c(c(-c3ccc(O)cc3)c[nH]c1=O)O[C@H]2C | > 100 | > 100 | > 100 | > 100
10 | C/C=C/C[C@H](C)C[C@]1(C)Oc2c(-c3ccc(O)cc3)c[nH]c(=O)c2[C@@H]1O | > 100 | > 100 | > 100 | –
11 | C/C=C/C[C@H](C)C[C@H](C)C(=O)c1c(O)cc[nH]c1=O | > 100 | > 100 | > 100 | > 100
